Values quoted from earlier work, collected in patent US20240199566A1, “CATALYTIC SYNTHESIS OF DELTA-VALEROLACTONE (DVL) FROM FURFURAL-DERIVED 2-HYDROXYTETRAHYDROPYRAN (HTHP)” (Wisconsin Alumni Research Foundation, priority 2022, published 2024).

Conditions: stated as a property, no test described

solubility in water: < 1 wt %
SMILES: C1=COCCC1 [DHP, 3,4-dihydropyran]
